Measurements taken from patent US9226916B2, “Pyrrolidine derivatives” (HOFFMANN-LA ROCHE INC., priority 2009, dated 2016).

molecular target: T1, recombinant human NK3 receptor (Homo sapiens, UniProt P29371); experiment: [3H]SR142801 competition binding assay; settings: not given
T1 construct: expressed in transfected cells; host or cells: HEK293 cells, transient expression; membranes
T1 sequence (P29371 1-465): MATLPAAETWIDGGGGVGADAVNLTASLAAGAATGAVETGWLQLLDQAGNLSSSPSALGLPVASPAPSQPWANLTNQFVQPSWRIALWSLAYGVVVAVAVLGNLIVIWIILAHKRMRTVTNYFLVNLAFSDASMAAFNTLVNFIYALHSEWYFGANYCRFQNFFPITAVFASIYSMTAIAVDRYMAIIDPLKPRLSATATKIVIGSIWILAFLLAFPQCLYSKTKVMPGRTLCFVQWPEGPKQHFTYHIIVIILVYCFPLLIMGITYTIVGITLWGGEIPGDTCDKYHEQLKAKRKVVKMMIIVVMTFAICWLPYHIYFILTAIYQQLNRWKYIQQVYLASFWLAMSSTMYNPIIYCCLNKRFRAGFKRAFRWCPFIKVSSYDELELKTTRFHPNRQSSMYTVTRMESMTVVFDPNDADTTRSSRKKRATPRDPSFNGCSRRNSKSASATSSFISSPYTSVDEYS

Going from CN(C(=O)Oc1ccc(F)cc1)[C@H]1CN(C(=O)CCN2CCCC2=O)C[C@@H]1c1ccc(Cl)c(Cl)c1 (racemic) [Example 56, rac-{(3R,4S)-4-(3,4-Dichloro-phenyl)-1-[3-(2-oxo-pyrrolidin-1-yl)-propionyl]-pyrrolidin-3-yl}-methyl-carbamic acid 4-fluoro-phenyl ester] to CCC(=O)N1CCC(C(=O)N2C[C@H](c3ccc(Cl)c(Cl)c3)[C@@H](N(C)C(=O)Oc3ccc(F)cc3)C2)CC1 (racemic) [Example 73, rac-[(3R,4S)-4-(3,4-Dichloro-phenyl)-1-(1-propionyl-piperidine-4-carbonyl)-pyrrolidin-3-yl]-methyl-carbamic acid 4-fluoro-phenyl ester], the Ki falls from 61.3 nM to 0.8 nM (77-fold). The second binds more tightly here.

Going from CN(C(=O)O[C@H]1CC[C@H](C)CC1)[C@H]1CN(C(=O)C2CCN(C(=O)C3(C)CC3)CC2)C[C@@H]1c1ccc(Cl)cc1 (racemic) [Example 57, rac-{(3R,4S)-4-(4-Chloro-phenyl)-1-[1-(1-methyl-cyclopropanecarbonyl)-piperidine-4-carbonyl]-pyrrolidin-3-yl}-methyl-carbamic acid 4-methyl-cyclohexyl ester] to Cc1ccc([C@H]2CN(C(=O)C3CCN(C(=O)C4(C)CC4)CC3)C[C@@H]2N(C)C(=O)Oc2ccc(F)cc2)cc1Cl (racemic) [Example 70, rac-{(3R,4S)-4-(3-Chloro-4-methyl-phenyl)-1-[1-(1-methyl-cyclopropanecarbonyl)-piperidine-4-carbonyl]-pyrrolidin-3-yl}-methyl-carbamic acid 4-fluoro-phenyl ester], the Ki falls from 7.6 nM to 1.3 nM (5.8-fold).

CC(=O)N1CCC(C(=O)N2C[C@H](c3ccc(Cl)c(Cl)c3)[C@@H](N(C)C(=O)Oc3ccc(F)cc3)C2)CC1 (racemic) [Example 65, rac-[(3R,4S)-1-(1-Acetyl-piperidine-4-carbonyl)-4-(3,4-dichloro-phenyl)-pyrrolidin-3-yl]-methyl-carbamic acid 4-fluoro-phenyl ester] and COCC(=O)N1CCC(C(=O)N2C[C@H](c3ccc(Cl)c(Cl)c3)[C@@H](N(C)C(=O)Oc3ccc(F)cc3)C2)CC1 (racemic) [Example 75, rac-{(3R,4S)-4-(3,4-Dichloro-phenyl)-1-[1-(2-methoxy-acetyl)-piperidine-4-carbonyl]-pyrrolidin-3-yl}-methyl-carbamic acid 4-fluoro-phenyl ester] are within 1.5-fold of each other in Ki: 0.7 nM for the first, 0.6 nM for the second.

CN(C(=O)Oc1ccc(F)cc1)[C@H]1CN(C(=O)C2CCN(C(=O)OC(C)(C)C)CC2)C[C@@H]1c1ccc(Cl)c(Cl)c1 (racemic) [Example 66, rac-4-{(3S,4R)-3-(3,4-Dichloro-phenyl)-4-[(4-fluoro-phenoxycarbonyl)-methyl-amino]-pyrrolidine-1-carbonyl}-piperidine-1-carboxylic acid tert-butyl ester] and CN(C(=O)Oc1ccc(F)cc1)[C@H]1CN(C(=O)C2CCN(C(=O)C3CC3)CC2)C[C@@H]1c1ccc(Cl)c(Cl)c1 (racemic) [Example 74, rac-[(3R,4S)-1-(1-Cyclopropanecarbonyl-piperidine-4-carbonyl)-4-(3,4-dichloro-phenyl)-pyrrolidin-3-yl]-methyl-carbamic acid 4-fluoro-phenyl ester] are the same in Ki: 0.8 nM for the first, 0.8 nM for the second.

Going from Cc1cc([C@H]2CN(C(=O)C3CCN(C(=O)C4(C)CC4)CC3)C[C@@H]2N(C)C(=O)Oc2ccc(F)cc2)ccc1Cl (racemic) [Example 71, rac-{(3R,4S)-4-(4-Chloro-3-methyl-phenyl)-1-[1-(1-methyl-cyclopropanecarbonyl)-piperidine-4-carbonyl]-pyrrolidin-3-yl}-methyl-carbamic acid 4-fluoro-phenyl ester] to CN(C(=O)Oc1ccc(F)cc1)[C@H]1CN(C(=O)C2CCN(C(=O)C3CCOCC3)CC2)C[C@@H]1c1ccc(Cl)c(Cl)c1 (racemic) [Example 76, rac-{(3R,4S)-4-(3,4-Dichloro-phenyl)-1-[1-(tetrahydro-pyran-4-carbonyl)-piperidine-4-carbonyl]-pyrrolidin-3-yl}-methyl-carbamic acid 4-fluoro-phenyl ester], the Ki falls from 1.8 nM to 0.7 nM (2.6-fold).

Going from CN(C(=O)Oc1ccc(F)cc1)[C@H]1CN(C(=O)C2CCNCC2)C[C@@H]1c1ccc(Cl)c(Cl)c1 (racemic) [Example 72, rac-[(3R,4S)-4-(3,4-Dichloro-phenyl)-1-(piperidine-4-carbonyl)-pyrrolidin-3-yl]-methyl-carbamic acid 4-fluoro-phenyl ester] to CN(C(=O)Oc1ccc(F)cc1)[C@H]1CN(C(=O)C2CCN(c3nncs3)CC2)C[C@@H]1c1ccc(Cl)c(Cl)c1 (racemic) [Example 78, rac-[(3R,4S)-4-(3,4-Dichloro-phenyl)-1-(1-[1,3,4]thiadiazol-2-yl-piperidine-4-carbonyl)-pyrrolidin-3-yl]-methyl-carbamic acid 4-fluoro-phenyl ester], the Ki falls from 21.2 nM to 1.5 nM (14-fold).

First: CN(C(=O)Oc1ccc(F)cc1)[C@H]1CN(C(=O)C2CCN(C3CCOCC3)CC2)C[C@@H]1c1ccc(Cl)c(Cl)c1 (racemic) [Example 77, rac-{(3R,4S)-4-(3,4-Dichloro-phenyl)-1-[1-(tetrahydro-pyran-4-yl)-piperidine-4-carbonyl]-pyrrolidin-3-yl}-methyl-carbamic acid 4-fluoro-phenyl ester]
Second: CN(C(=O)Oc1ccc(F)cc1)[C@H]1CN(C(=O)C2CCN(c3ccc(Cl)nn3)CC2)C[C@@H]1c1ccc(Cl)c(Cl)c1 (racemic) [Example 79, rac-[(3R,4S)-1-[1-(6-Chloro-pyridazin-3-yl)-piperidine-4-carbonyl]-4-(3,4-dichloro-phenyl)-pyrrolidin-3-yl]-methyl-carbamic acid 4-fluoro-phenyl ester]
The Ki of the first is 3.8-fold higher: 1.5 nM for the first, 0.4 nM for the second.

Compared with CN(C(=O)Oc1ccc(F)cc1)[C@H]1CN(C(=O)C2CCN(c3ccc(C#N)cn3)CC2)C[C@@H]1c1ccc(Cl)c(Cl)c1 (racemic) [Example 80, rac-[(3R,4S)-1-(5′-Cyano-3,4,5,6-tetrahydro-2H-[1,2′]bipyridinyl-4-carbonyl)-4-(3,4-dichloro-phenyl)-pyrrolidin-3-yl]-methyl-carbamic acid 4-fluoro-phenyl ester], CN(C(=O)OCCC(F)(F)C(F)(F)F)[C@H]1CN(C(=O)C2CCN(C(=O)C3(C)CC3)CC2)C[C@@H]1c1ccc(Cl)c(Cl)c1 (racemic) [Example 83, rac-{(3R,4S)-4-(3,4-Dichloro-phenyl)-1-[1-(1-methyl-cyclopropanecarbonyl)-piperidine-4-carbonyl]-pyrrolidin-3-yl}-methyl-carbamic acid 3,3,4,4,4-pentafluoro-butyl ester] is 14-fold higher in Ki: 0.3 nM for the first, 4.2 nM for the second. The first binds more tightly here.

same assay, conditions: hNK-3 receptor affinity; membranes from HEK293 cells transiently expressing recombinant human NK3 receptor; [3H]SR142801; Cheng-Prussoff; read-out: Data Ki

CN(C(=O)OCCCC(F)(F)F)[C@H]1CN(C(=O)C2CCN(C(=O)C3(C)CC3)CC2)C[C@@H]1c1ccc(Cl)c(Cl)c1 (racemic) [Example 67, rac-{(3R,4S)-4-(3,4-Dichloro-phenyl)-1-[1-(1-methyl-cyclopropanecarbonyl)-piperidine-4-carbonyl]-pyrrolidin-3-yl}-methyl-carbamic acid 4,4,4-trifluoro-butyl ester] showed a Ki of 0.4 nM.
